Results from ChEMBL document CHEMBL3098004, “Asymmetric synthesis and receptor activity of chiral simplified resiniferatoxin (sRTX) analogues as transient receptor potential vanilloid 1 (TRPV1) ligands” (Bioorg Med Chem Lett, 2014).

Experiments:
Assay type in all cases: cell-based; call rule not given here
[1] = target: T1, Transient receptor potential cation channel subfamily V member 1 (Homo sapiens, UniProt Q8NER1); assay: Antagonist activity at human TRPV1 expressed in CHO cells assessed as inhibition of RTX-induced 45Ca2+ uptake after 20 mins by liquid scintillation counting analysis
[2] = target: T1, Transient receptor potential cation channel subfamily V member 1; assay: Displacement of [3H]RTX from human TRPV1 expressed in CHO cells after 60 mins by liquid scintillation counting analysis
[3] = target: T1, Transient receptor potential cation channel subfamily V member 1; assay: Agonist activity at human TRPV1 expressed in CHO cells assessed as 45Ca2+ uptake after 20 mins by liquid scintillation counting analysis

T1 sequence (Q8NER1 whole entry): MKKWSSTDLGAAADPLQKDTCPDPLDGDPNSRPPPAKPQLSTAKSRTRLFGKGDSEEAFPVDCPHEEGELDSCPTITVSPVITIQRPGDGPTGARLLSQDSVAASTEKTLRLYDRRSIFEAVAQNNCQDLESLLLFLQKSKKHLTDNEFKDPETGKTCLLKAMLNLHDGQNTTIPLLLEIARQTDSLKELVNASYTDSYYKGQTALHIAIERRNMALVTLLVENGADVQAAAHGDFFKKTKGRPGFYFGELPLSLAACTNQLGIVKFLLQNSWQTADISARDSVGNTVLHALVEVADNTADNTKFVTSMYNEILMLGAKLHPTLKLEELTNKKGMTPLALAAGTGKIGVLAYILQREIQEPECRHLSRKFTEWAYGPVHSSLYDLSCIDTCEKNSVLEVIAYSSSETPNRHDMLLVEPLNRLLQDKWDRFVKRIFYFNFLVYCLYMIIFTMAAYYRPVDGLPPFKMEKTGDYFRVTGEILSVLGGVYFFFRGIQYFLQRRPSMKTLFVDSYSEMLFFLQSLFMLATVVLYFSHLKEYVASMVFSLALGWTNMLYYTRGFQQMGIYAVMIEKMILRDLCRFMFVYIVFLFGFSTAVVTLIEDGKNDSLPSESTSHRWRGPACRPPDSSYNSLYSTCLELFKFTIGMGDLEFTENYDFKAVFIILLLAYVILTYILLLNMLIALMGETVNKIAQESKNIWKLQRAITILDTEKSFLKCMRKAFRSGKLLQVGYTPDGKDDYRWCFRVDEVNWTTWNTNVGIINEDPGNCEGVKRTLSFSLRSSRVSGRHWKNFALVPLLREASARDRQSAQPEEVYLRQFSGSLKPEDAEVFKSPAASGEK

Row | Compound | Ki ([1]; cho) | Ki [2] [nM] | EC50 ([3]; read-out: EC50) [nM] | Ki ([1]; read-out: Ki) [nM] | EC50 ([3]; cho)
1 | COc1cc(CNC(=S)NC[C@H](COC(=O)C(C)(C)C)Cc2ccc(C(C)(C)C)cc2)ccc1O | Not Active | 3.06 | 0.99 |  | 
2 | COc1cc(CNC(=S)NC[C@@H](COC(=O)C(C)(C)C)Cc2ccc(C(C)(C)C)cc2)ccc1O | Not Active | 6.58 | 9.55 |  | 
3 | CC(C)(C)C(=O)OC[C@@H](CNC(=S)NCc1ccc(NS(C)(=O)=O)c(F)c1)Cc1ccc(C(C)(C)C)cc1 |  | 17.2 |  | 94 | Not Active
4 | CC(C)(C)C(=O)OC[C@H](CNC(=S)NCc1ccc(NS(C)(=O)=O)c(F)c1)Cc1ccc(C(C)(C)C)cc1 |  | 63 |  | 161 | Not Active
5 | CC(C)(C)C(=O)OCC(CNC(=S)NCc1ccc(NS(C)(=O)=O)c(F)c1)Cc1ccc(C(C)(C)C)cc1 (racemic) |  | 23 |  | 122 | Not Active
6 | COc1cc(CNC(=S)NCC(COC(=O)C(C)(C)C)Cc2ccc(C(C)(C)C)cc2)ccc1O (racemic) | Not Active | 6.1 | 1.34 |  | 
7 | C=C(C)[C@]12C[C@@H](C)[C@@]34O[C@](Cc5ccccc5)(O[C@@H]1[C@@H]3C=C(COC(=O)Cc1cc(I)c(O)c(OC)c1)C[C@]1(O)C(=O)C(C)=C[C@@H]41)O2 [IODORESINIFERATOXIN] |  |  |  |  | Not Active
8 | C=C(C)[C@]12C[C@@H](C)[C@@]34O[C@](Cc5ccccc5)(O[C@@H]1[C@@H]3C=C(COC(=O)Cc1ccc(O)c(OC)c1)C[C@]1(O)C(=O)C(C)=C[C@@H]41)O2 [RESINIFERATOXIN] | Not Active |  |  |  | 
